In US8067447B2, “Modulators of glucocorticoid receptor, AP-1, and/or NF-κB activity and use thereof” (Bristol-Myers Squibb Company, priority 2006, dated 2011) one finds Ki and EC50 data, which are given here for 22 molecules.

Where only a bound is given, the exact number is not on record here.

Assay [1] concerns the target T1, human full-length glucocorticoid receptor (Homo sapiens, UniProt P04150).
T1 construct: a cell lysate containing recombinantly expressed human full-length glucocorticoid receptor; purchased PanVera Co., Madison, Wis; P2816
T1 sequence (P04150 1-777): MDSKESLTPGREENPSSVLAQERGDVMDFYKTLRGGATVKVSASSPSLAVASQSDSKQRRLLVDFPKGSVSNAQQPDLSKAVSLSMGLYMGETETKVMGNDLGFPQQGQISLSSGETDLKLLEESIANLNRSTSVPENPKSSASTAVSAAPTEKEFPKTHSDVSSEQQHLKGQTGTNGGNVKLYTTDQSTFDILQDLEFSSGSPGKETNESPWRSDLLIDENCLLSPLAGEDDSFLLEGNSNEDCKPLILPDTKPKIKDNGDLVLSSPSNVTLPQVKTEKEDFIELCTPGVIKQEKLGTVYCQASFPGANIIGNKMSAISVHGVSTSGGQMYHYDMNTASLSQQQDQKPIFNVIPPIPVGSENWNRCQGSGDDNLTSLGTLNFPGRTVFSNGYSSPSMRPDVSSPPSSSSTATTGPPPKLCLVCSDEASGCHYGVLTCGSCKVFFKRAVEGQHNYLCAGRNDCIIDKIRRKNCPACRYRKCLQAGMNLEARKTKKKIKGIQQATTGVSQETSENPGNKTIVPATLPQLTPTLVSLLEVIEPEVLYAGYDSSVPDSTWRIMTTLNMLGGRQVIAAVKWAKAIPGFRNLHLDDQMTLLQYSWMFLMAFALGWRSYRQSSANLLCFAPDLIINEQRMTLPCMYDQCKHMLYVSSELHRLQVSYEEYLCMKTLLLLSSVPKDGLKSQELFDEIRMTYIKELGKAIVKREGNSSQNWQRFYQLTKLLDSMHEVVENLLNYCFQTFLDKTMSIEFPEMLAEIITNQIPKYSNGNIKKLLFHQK
Description: Glucocorticoid Receptor Binding Assay (II), fluorescence polarization competitor kit (Fluormone GS1). Conditions: cell lysate with recombinant human full-length GR, 1 nM Fluormone GS1, FP. Summed up:
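Recombinant full-length human GR in cell lysate competed against 1 nM fluorescent glucocorticoid tracer (Fluormone GS1) with or without test compound. Fluorescence polarization read after 1 h at room temperature.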

The test system of assay [2] is AP-1 induced transcriptional activity. Description: Cellular Transrepressional Assay (AP-1 luciferase reporter in A549 cells, PMA-activated). Conditions: Homo sapiens, A549, 7 h, A549 cells with 7x AP-1 luciferase reporter, 10 ng/ml PMA, read-out: AP-1 (EC50, nM) (Cellular Transrepression Assay). Type of assay: cell-based. Summed up:
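Stable A549 AP-1 (7× sites) luciferase reporter line stimulated with 10 ng/ml PMA plus test molecules (0.1 nM to 40 μM) for 7 h. Luminescence read after 10 min with luciferase reagent; EC50 from % decrease of PMA-induced signal.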

For the molecule `CC(C)(CO)CNC(=O)C(C)(C)C(Cc1ccccc1)c1ccc2c(cnn2-c2ccc(F)cc2)c1` (centres unmarked) [Example 134, 3-(1-(4-fluorophenyl)-1H-indazol-5-yl)-N-(3-hydroxy-2,2-dimethylpropyl)-2,2-dimethyl-4-phenylbutanamide], the Ki in assay [1] was 6 nM. Also, the 50% effective concentration (EC50) in assay [2] was greater than 10000 nM.

With `CC(C)(C(=O)N[C@@H]1CCC[C@H]1O)[C@@H](c1ccccc1)c1ccc2c(cnn2-c2ccc(F)cc2)c1` [Example 135, (S)-3-(1-(4-fluorophenyl)-1H-indazol-5-yl)-N-(2-hydroxycyclopentyl)-2,2-dimethyl-3-phenylpropanamide], the Ki in assay [1] is 0.6 nM. In assay [2], the EC50 turned out to be 40 nM.

As for `Cn1cnc(NC(=O)CC(c2ccccc2)c2ccc3c(cnn3-c3ccc(F)cc3)c2)n1` (centres unmarked) [Example 137, 3-(1-(4-Fluorophenyl)-1H-indazol-5-yl)-N-(1-methyl-1H-1,2,4-triazol-3-yl)-3-phenylpropanamide], the Ki in assay [1] is 11 nM. In addition, the EC50 in assay [2] came out at 833 nM.

In the case of `CC(C)(C(=O)Nc1nccs1)C(Cc1ccccc1)c1ccc2c(cnn2-c2ccc(F)cc2)c1` (centres unmarked) [Example 138, 3-(1-(4-Fluorophenyl)-1H-indazol-5-yl)-2,2-dimethyl-4-phenyl-N-(thiazol-2-yl)butanamide], the Ki in assay [1] turned out to be 1.9 nM. The concentration giving a half-maximal response (EC50) in assay [2] was 223 nM.

As to `CC(C)/C=C(\c1ccc2c(cnn2-c2ccc(F)cc2)c1)C(C)(C)C(=O)Nc1nncs1` [Example 139, (E)-3-(1-(4-Fluorophenyl)-1H-indazol-5-yl)-2,2,5-trimethyl-N-(1,3,4-thiadiazol-2-yl)hex-3-enamide], the Ki in assay [1] worked out at 4.7 nM. The EC50 in assay [2] is 2500 nM.

Consider `CC(C)(C(=O)Nc1nncs1)C(OCc1ccccc1)c1ccc2c(cnn2-c2ccc(F)cc2)c1` (centres unmarked) [Example 140, 3-(Benzyloxy)-3-(1-(4-fluorophenyl)-1H-indazol-5-yl)-2,2-dimethyl-N-(1,3,4-thiadiazol-2-yl)propanamide], for which, in assay [1], the Ki worked out at 1.6 nM. The EC50 in assay [2] is 4 nM.

As to `CCC(C(=O)Nc1nncs1)C(c1ccccc1)c1ccc2c(cnn2-c2ccc(F)cc2)c1` (centres unmarked) [Example 142, 2-((1-(4-Fluorophenyl)-1H-indazol-5-yl)(phenyl)methyl)-N-(1,3,4-thiadiazol-2-yl)butanamide], in assay [1], the Ki was 1.1 nM. Besides, in assay [2], the EC50 came to 0.55 nM.

In the case of `CCCC(C(=O)Nc1nncs1)C(c1ccccc1)c1ccc2c(cnn2-c2ccc(F)cc2)c1` (centres unmarked) [Example 143, 2-((1-(4-fluorophenyl)-1H-indazol-5-yl)(phenyl)methyl)-N-(1,3,4-thiadiazol-2-yl)pentanamide], in assay [1], the Ki is 1.7 nM. For the same molecule, in assay [2], the EC50 is 2 nM.

In the case of `CC(C)C(C(=O)Nc1nncs1)C(c1ccccc1)c1ccc2c(cnn2-c2ccc(F)cc2)c1` (centres unmarked) [Example 144, 2-((1-(4-fluorophenyl)-1H-indazol-5-yl)(phenyl)methyl)-3-methyl-N-(1,3,4-thiadiazol-2-yl)butanamide], the Ki in assay [1] turned out to be 2 nM. For the same molecule, the EC50 in assay [2] worked out at 2 nM.

Regarding `O=C(Nc1nncs1)C(Cc1ccccc1)C(c1ccccc1)c1ccc2c(cnn2-c2ccc(F)cc2)c1` (centres unmarked) [Example 146, 2-benzyl-3-(1-(4-fluorophenyl)-1H-indazol-5-yl)-3-phenyl-N-(1,3,4-thiadiazol-2-yl)propanamide], the Ki in assay [1] turned out to be 1.5 nM. Besides, the EC50 in assay [2] is 2 nM.

On to `O=C(Nc1nncs1)C(C1CCCC1)C(c1ccccc1)c1ccc2c(cnn2-c2ccc(F)cc2)c1` (centres unmarked) [Example 147, 2-cyclopentyl-3-(1-(4-fluorophenyl)-1H-indazol-5-yl)-3-phenyl-N-(1,3,4-thiadiazol-2-yl)propanamide], for which the Ki in assay [1] came out at 2.3 nM. Also, in assay [2], the EC50 is 2 nM.

As to `O=C(Nc1nncs1)C(C1CCCCC1)C(c1ccccc1)c1ccc2c(cnn2-c2ccc(F)cc2)c1` (centres unmarked) [Example 148, 2-cyclohexyl-3-(1-(4-fluorophenyl)-1H-indazol-5-yl)-3-phenyl-N-(1,3,4-thiadiazol-2-yl)propanamide], in assay [1], the Ki stood at 6.4 nM. The EC50 in assay [2] was determined as 6 nM.

For the molecule `CCC(CC)(C(=O)Nc1nncs1)C(c1ccccc1)c1ccc2c(cnn2-c2ccc(F)cc2)c1` (centres unmarked) [Example 149, 2-ethyl-2-((1-(4-fluorophenyl)-1H-indazol-5-yl)(phenyl)methyl)-N-(1,3,4-thiadiazol-2-yl)butanamide], the Ki in assay [1] was 4.7 nM. The EC50 in assay [2] stood at 130 nM.

As for `O=C(Nc1nncs1)C1(C(c2ccccc2)c2ccc3c(cnn3-c3ccc(F)cc3)c2)CCCCC1` (centres unmarked) [Example 150, 1-((1-(4-fluorophenyl)-1H-indazol-5-yl)(phenyl)methyl)-N-(1,3,4-thiadiazol-2-yl)cyclohexanecarboxamide], the Ki in assay [1] stood at 4 nM. Moreover, the EC50 in assay [2] came to 13 nM.

Consider `COC(=O)c1ccc(C(c2ccc3c(cnn3-c3ccc(F)cc3)c2)C(C)C(=O)Nc2nncs2)cc1` (centres unmarked) [Example 153, Methyl 4-(3-(1,3,4-thiadiazol-2-ylamino)-1-(1-(4-fluorophenyl)-1H-indazol-5-yl)-2-methyl-3-oxopropyl)benzoate], for which the Ki in assay [1] was determined as 4.3 nM. For the same molecule, the EC50 in assay [2] was found to be 27 nM.

Turning to `CC(=O)OCC(C)(C(=O)Nc1nncs1)C(c1ccccc1)c1ccc2c(cnn2-c2ccc(F)cc2)c1` (centres unmarked) [Example 154, 3-(1,3,4-Thiadiazol-2-ylamino)-2-((1-(4-fluorophenyl)-1H-indazol-5-yl)(phenyl)methyl)-2-methyl-3-oxopropyl acetate], the Ki in assay [1] was found to be 2.6 nM. In assay [2], the EC50 amounted to 15 nM.

In the case of `CC(CO)(C(=O)Nc1nncs1)C(c1ccccc1)c1ccc2c(cnn2-c2ccc(F)cc2)c1` (centres unmarked) [Example 155, 3-(1-(4-Fluorophenyl)-1H-indazol-5-yl)-2-(hydroxymethyl)-2-methyl-3-phenyl-N-(1,3,4-thiadiazol-2-yl)propanamide], the Ki in assay [1] was 4.3 nM. In assay [2], the EC50 worked out at 1770 nM.

`CC(C)(C(=O)Nc1nncs1)[C@@H](c1ccccc1)c1ccc2c(cnn2-c2ccc(F)cc2C(N)=O)c1` [Example 156, 2-(5-((S)-3-(1,3,4-Thiadiazol-2-ylamino)-2,2-dimethyl-3-oxo-1-phenylpropyl)-1H-indazol-1-yl)-5-fluorobenzamide]: the Ki in assay [1] was determined as 22 nM. The EC50 in assay [2] was 135 nM.

For the molecule `CN(C)C(=O)c1cc(F)ccc1-n1ncc2cc([C@H](c3ccccc3)C(C)(C)C(=O)Nc3nncs3)ccc21` [Example 158, 2-(5-((S)-3-(1,3,4-Thiadiazol-2-ylamino)-2,2-dimethyl-3-oxo-1-phenylpropyl)-1H-indazol-1-yl)-5-fluoro-N,N-dimethylbenzamide], in assay [1], the Ki was 825 nM. Further, in assay [2], the EC50 is 2500 nM.

In the case of `CC(C)(C(=O)Nc1nncs1)[C@@H](c1ccccc1)c1ccc2c(cnn2-c2ccc(F)cc2N)c1` [Example 159, (3S)-3-(1-(2-Amino-4-fluorophenyl)-1H-indazol-5-yl)-2,2-dimethyl-3-phenyl-N-(1,3,4-thiadiazol-2-yl)propanamide], in assay [1], the Ki came out at 0.35 nM. Besides, the EC50 in assay [2] was 73 nM.

As for `CN(C)C(=O)Nc1cc(F)ccc1-n1ncc2cc([C@H](c3ccccc3)C(C)(C)C(=O)Nc3nncs3)ccc21` [Example 160, (3S)-3-(1-(2-(3,3-Dimethylureido)-4-fluorophenyl)-1H-indazol-5-yl)-2,2-dimethyl-3-phenyl-N-(1,3,4-thiadiazol-2-yl)propanamide], the Ki in assay [1] came to 25 nM. For the same molecule, in assay [2], the EC50 came out at 234 nM.

As for `CC(C)(C(=O)Nc1nncs1)[C@@H](c1ccccc1)c1ccc2c(cnn2-c2ccc(F)cc2NC(N)=O)c1` [Example 161, (3S)-3-(1-(4-Fluoro-2-ureidophenyl)-1H-indazol-5-yl)-2,2-dimethyl-3-phenyl-N-(1,3,4-thiadiazol-2-yl)propanamide], the Ki in assay [1] worked out at 32 nM. The EC50 in assay [2] worked out at 5000 nM.

In general, Ki refers to a measure of affinity in units of concentration, obtained from inhibition or displacement. One may read the EC50 as the concentration giving half of the maximal effect.
